Source: publication PMC6627067, “Probing Multi-Target Action of Phlorotannins as New Monoamine Oxidase Inhibitors and Dopaminergic Receptor Modulators with the Potential for Treatment of Neuronal Disorders” (Marine Drugs, 2019)
“And” between values parts separate entries of the source, which are not always exact repeats. Equal entries are not always repeated.

Tests used:
hNK1 (TACR1) = hNK1 (TACR1) (Homo sapiens, UniProt P25103); test: GPCR cell-based functional assay, intracellular Ca2+ level, NK1; settings: for % Stimulation of control agonist response, hNK1: agonist effect at 100 µM; for inhibition at 100 µM: antagonist effect at 100 µM, read-out: % Inhibition of control agonist response, hNK1
hMAO-B = biological target: T1, hMAO-B (Homo sapiens, UniProt P27338); test: hMAO-B inhibition, chemiluminescent MAO-Glo assay and kinetic analysis; assay type: biochemical
T1 sequence (P27338 1-520): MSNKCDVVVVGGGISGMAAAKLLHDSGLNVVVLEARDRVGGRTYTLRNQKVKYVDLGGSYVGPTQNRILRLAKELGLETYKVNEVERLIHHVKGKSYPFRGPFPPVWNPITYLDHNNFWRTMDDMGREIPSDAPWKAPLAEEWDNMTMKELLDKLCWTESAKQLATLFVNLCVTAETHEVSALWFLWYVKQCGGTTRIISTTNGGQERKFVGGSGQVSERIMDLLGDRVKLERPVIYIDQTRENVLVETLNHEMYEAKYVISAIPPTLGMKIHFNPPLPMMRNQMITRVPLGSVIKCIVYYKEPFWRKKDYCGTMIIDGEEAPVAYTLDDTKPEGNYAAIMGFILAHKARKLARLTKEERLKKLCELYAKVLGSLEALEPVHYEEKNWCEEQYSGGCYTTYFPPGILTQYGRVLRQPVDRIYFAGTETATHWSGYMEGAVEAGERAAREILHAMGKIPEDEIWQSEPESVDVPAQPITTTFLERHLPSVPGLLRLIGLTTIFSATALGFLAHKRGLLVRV

hD1 (DRD1) [1] = biological target: T2, hD1 (DRD1) (Homo sapiens, UniProt P21728); test: cell-based; settings: read-out: % Inhibition of control agonist response, hD1
h5-HT1A (HTR1A) = biological target: T3, h5-HT1A (HTR1A) (Homo sapiens, UniProt P08908); test: GPCR cell-based functional assay, intracellular Ca2+ level, 5-HT1A; settings: for % Stimulation of control agonist response, h5-HT1A: agonist effect at 100 µM; for inhibition at 100 µM: antagonist effect at 100 µM, read-out: % Inhibition of control agonist response, h5-HT1A
T3 sequence (P08908 1-422): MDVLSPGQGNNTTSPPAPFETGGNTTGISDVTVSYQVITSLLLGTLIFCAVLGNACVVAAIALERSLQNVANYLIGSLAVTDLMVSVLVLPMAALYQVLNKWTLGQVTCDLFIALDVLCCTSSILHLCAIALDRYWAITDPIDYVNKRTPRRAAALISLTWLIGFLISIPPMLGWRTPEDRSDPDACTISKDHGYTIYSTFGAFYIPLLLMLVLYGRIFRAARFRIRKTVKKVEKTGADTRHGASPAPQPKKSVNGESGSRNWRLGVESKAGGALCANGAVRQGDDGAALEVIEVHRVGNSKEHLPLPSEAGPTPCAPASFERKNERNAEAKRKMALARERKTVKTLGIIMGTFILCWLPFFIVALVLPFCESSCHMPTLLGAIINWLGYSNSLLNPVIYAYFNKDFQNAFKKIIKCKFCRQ

hM5 (CHRM5) = biological target: T4, hM5 (CHRM5) (Homo sapiens, UniProt P08912); test: GPCR cell-based functional assay, intracellular Ca2+ level, M5; settings: for % Stimulation of control agonist response, hM5: agonist effect at 100 µM; for inhibition at 100 µM: antagonist effect at 100 µM, read-out: % Inhibition of control agonist response, hM5
T4 sequence (P08912 1-532): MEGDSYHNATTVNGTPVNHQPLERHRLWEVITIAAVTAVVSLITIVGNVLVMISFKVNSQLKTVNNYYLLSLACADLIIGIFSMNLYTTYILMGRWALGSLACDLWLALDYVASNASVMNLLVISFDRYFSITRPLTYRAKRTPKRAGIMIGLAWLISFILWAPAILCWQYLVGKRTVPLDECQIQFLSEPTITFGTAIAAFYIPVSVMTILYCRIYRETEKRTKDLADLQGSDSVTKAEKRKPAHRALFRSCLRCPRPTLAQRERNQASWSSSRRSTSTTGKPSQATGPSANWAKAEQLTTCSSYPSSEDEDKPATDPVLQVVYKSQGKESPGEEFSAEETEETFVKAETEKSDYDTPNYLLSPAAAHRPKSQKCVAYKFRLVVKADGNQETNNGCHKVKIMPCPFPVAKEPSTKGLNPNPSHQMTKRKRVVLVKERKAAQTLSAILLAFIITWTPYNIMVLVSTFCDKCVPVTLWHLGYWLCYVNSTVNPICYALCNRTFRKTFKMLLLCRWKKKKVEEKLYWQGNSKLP

hD1 (DRD1) [2] = biological target: T2, hD1 (DRD1); settings: agonist effect at 100 µM
hD4 (DRD4) = biological target: T5, hD4 (DRD4) (Homo sapiens, UniProt P21917); settings: for % Stimulation of control agonist response, hD4: agonist effect at 100 µM; for inhibition at 100 µM: read-out: % Inhibition of control agonist response, hD4
T5 sequence (P21917 1-419): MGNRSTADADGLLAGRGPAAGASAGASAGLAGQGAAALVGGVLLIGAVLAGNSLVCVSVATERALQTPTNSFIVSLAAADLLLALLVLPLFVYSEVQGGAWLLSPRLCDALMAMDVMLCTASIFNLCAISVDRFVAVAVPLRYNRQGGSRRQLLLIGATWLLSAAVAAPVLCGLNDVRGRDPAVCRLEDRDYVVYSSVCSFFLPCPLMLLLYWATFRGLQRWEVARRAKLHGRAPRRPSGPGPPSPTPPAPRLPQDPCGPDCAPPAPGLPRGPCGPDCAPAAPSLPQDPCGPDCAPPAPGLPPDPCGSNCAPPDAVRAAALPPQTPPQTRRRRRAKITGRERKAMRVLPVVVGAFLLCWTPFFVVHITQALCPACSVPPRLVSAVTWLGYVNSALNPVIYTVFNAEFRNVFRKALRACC

hV1A (AVPR1A) = hV1A (AVPR1A) (Homo sapiens, UniProt P37288); test: GPCR cell-based functional assay, intracellular Ca2+ level, V1A; settings: for % Stimulation of control agonist response, hV1A: agonist effect at 100 µM; for inhibition at 100 µM: antagonist effect at 100 µM, read-out: % Inhibition of control agonist response, hV1A
hD3 (DRD3) [3] = biological target: T6, hD3 (DRD3) (Homo sapiens, UniProt P35462); settings: for % Stimulation of control agonist response, hD3: agonist effect at 100 µM
hD3 (DRD3) [4] = biological target: T6, hD3 (DRD3); test: cell-based; settings: for inhibition at 100 µM: read-out: % Inhibition of control agonist response, hD3
hMAO-A = biological target: T7, hMAO-A (Homo sapiens, UniProt P21397); test: hMAO-A inhibition, chemiluminescent MAO-Glo assay and kinetic analysis; assay type: biochemical; settings: for IC50: read-out: IC50 hMAO-A
T7 sequence (P21397 1-527): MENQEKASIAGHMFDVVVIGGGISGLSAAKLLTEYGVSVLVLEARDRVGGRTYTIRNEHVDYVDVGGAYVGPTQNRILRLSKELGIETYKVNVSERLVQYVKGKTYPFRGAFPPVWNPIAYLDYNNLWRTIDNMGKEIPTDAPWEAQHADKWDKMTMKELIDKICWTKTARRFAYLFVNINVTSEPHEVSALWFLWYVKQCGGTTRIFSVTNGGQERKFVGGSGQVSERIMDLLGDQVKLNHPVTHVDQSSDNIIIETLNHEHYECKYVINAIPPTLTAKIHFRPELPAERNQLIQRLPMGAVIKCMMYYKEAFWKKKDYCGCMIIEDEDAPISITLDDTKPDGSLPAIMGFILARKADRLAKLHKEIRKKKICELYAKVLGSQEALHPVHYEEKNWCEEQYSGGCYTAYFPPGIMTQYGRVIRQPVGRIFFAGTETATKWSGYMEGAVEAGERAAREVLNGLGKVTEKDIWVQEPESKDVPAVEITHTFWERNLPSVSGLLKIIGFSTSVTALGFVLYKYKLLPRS

[5] = Kiu from secondary plot of 1/Vmaxapp versus concentration
[6] = Lineweaver-Burk plots, NC = noncompetitive
[7] = recombinant hMAO-B, mean ± SD, n = 3
[8] = recombinant hMAO-A, mean ± SD, n = 3
[9] = concentration-dependent stimulation, mean ± SD

T2 sequence (P21728 whole entry): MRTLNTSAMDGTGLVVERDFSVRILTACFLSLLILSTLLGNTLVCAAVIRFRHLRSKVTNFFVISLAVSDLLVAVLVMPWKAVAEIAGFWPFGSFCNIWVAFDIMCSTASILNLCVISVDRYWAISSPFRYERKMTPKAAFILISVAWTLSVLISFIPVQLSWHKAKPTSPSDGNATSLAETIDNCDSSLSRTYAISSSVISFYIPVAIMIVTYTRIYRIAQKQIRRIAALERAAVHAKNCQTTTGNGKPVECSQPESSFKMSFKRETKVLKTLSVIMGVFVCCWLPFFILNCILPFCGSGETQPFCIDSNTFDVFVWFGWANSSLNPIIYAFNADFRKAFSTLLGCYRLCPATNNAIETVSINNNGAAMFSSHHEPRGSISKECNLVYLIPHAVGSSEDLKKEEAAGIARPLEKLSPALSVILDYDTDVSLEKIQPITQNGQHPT
hNK1 (TACR1), sequence (P25103 whole entry): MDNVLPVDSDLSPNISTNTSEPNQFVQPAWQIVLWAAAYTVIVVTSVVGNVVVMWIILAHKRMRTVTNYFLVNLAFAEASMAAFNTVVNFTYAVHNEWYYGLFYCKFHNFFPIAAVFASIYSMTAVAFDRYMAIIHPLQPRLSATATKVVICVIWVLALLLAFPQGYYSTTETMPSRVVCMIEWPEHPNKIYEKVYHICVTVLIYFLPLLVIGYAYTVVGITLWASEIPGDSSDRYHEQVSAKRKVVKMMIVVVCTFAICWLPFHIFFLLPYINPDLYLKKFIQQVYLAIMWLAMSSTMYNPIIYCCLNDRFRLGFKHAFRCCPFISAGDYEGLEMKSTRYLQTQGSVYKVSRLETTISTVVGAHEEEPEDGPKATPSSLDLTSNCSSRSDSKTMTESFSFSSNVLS
hV1A (AVPR1A), sequence (P37288 whole entry): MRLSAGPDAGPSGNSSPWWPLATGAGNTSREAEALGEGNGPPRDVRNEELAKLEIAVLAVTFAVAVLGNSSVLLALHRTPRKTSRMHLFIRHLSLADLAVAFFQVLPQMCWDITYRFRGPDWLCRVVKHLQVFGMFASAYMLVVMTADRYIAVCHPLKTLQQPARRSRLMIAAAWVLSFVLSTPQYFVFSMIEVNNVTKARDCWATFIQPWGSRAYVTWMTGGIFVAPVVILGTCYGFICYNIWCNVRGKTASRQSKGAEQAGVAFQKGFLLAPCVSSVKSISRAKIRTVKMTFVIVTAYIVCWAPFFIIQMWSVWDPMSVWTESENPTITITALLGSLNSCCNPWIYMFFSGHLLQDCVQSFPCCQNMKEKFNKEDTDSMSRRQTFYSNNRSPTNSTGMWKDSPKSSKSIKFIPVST
T6 sequence (P35462 whole entry): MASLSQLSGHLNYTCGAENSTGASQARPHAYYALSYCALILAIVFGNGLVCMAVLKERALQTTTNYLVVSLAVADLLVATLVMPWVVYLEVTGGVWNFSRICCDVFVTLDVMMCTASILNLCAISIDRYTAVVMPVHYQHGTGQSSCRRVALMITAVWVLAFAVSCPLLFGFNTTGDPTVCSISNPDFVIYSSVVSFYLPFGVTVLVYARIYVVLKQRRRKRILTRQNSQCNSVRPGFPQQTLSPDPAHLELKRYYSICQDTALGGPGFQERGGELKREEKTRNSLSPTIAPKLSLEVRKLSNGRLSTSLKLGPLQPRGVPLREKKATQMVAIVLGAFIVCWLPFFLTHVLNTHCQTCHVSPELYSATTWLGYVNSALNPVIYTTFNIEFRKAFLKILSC

IC50 (hMAO-B; [7])	% Stimulation of control agonist response, hNK1 (hNK1 (TACR1))	inhibition at 100 µM (hNK1 (TACR1))	inhibition at 100 µM (hD1 (DRD1) [1])	% Stimulation of control agonist response, h5-HT1A (h5-HT1A (HTR1A))	inhibition at 100 µM (h5-HT1A (HTR1A))	% Stimulation of control agonist response, hM5 (hM5 (CHRM5))	inhibition at 100 µM (hM5 (CHRM5))	% Stimulation of control agonist response, hD1 (hD1 (DRD1) [2])	% Stimulation of control agonist response, hD4 (hD4 (DRD4))	inhibition at 100 µM (hD4 (DRD4))	% Stimulation of control agonist response, hV1A (hV1A (AVPR1A))	inhibition at 100 µM (hV1A (AVPR1A))	% Stimulation of control agonist response, hD3 (hD3 (DRD3) [3])	inhibition at 100 µM (hD3 (DRD3) [4])	IC50 (hMAO-A; [8])	Compound	also measured
																FC(F)(F)c1cc(CO[C@H]2CCCN[C@H]2c2ccccc2)cc(C(F)(F)F)c1 [L-733,060, reference compound]	IC50 (hNK1 (TACR1); positive control, read-out: IC50 of standard antagonist, hNK1): 0.0016 µM
4.89 ± 0.32 µM	67.65 ± 9.26 ^A %	88.2%	81.4%	1.65 ± 0.49 ^A %	62.5%	29.20 ± 10.75 ^A %	56%	0.25 ± 3.18 ^A %	98.50 ± 12.50% and 98.50 ± 12.50 ^A %	-26.1%	38.45 ± 7.14 ^B %	52.9%	98.57 ± 2.14% and 98.57 ± 2.14 ^A %	-15.2%	9.22 ± 0.19 µM	Oc1cc(O)cc(Oc2c(O)cc(O)c3c2Oc2c(O)cc4oc5c(Oc6cc(O)cc(O)c6)c(O)cc(O)c5c4c2O3)c1 [PFF-A, phlorofucofuroeckol-A]	Ki (hMAO-B; [5]): 2.69 µM; Inhibition type hMAO-B (hMAO-B; [6]): noncompetitive; EC50 (hD4 (DRD4)): 23.5 ± 1.55 µM; EC50 (hD3 (DRD3) [4]): 19.2 ± 0.48 µM; Ki (hMAO-A; [5]): 5.18 µM; Inhibition type hMAO-A (hMAO-A; [6]): noncompetitive; SI (selective index) (hMAO-A; ratio of hMAO-A IC50/hMAO-B IC50): 1.89
> 900 µM	−0.85 ± 0.21 ^C %	-8.05%	4.95%	0.10 ± 0.28 ^B %	-4.15%	−6.05 ± 0.78 ^B %	-21.6%	0.20 ± 3.82 ^A %	−9.95 ± 14.50 ^C %	-7.05%	−0.80 ± 0.57 ^C %	13.9%	−0.15 ± 14.07 ^C %	-6.75%	> 900 µM	Oc1cc(O)cc(O)c1 [Phloroglucinol, phloroglucinol]	IC50 hMAO-B (hMAO-B; [7]): no inhibitory activity; EC50, dopamine D4 agonist effect (hD4 (DRD4); [9]): No activity; EC50, dopamine D3 agonist effect (hD3 (DRD3) [3]; [9]): No activity; IC50 hMAO-A (hMAO-A; [8]): no inhibitory activity
